Data set [1] relates to Green Peach Aphid (Myzus persicae). Put plainly: Green peach aphid (Myzus persicae) test, infested bell pepper leaves dipped in test solution. As to conditions: 120 h, determined after 5 days, read-out: mortality of green peach aphid in comparison with untreated controls. It counts as in vivo. How it is done:
(§1) The active compounds were formulated in a mixture of 50 vol.-% acetone:50 vol.-% water. A nonionic surfactant (Kinetic®) was included in the solution at a volume of 0.01% v/v.
(§2) In the following tests, the formulated solutions of the active compounds were diluted to an active ingredient concentration of 300 ppm, if not otherwise described, and the diluted solutions were applied in the below mentioned tests.
Bell pepper plants at the first true-leaf stage were infested prior to treatment by placing heavily infested leaves from the main aphid colony on top of the treatment plants. The aphids were allowed to transfer overnight to accomplish an infestation of 30-40 aphids per plant and the host leaves were removed. The infested leaves of the test plants were then dipped and agitated in the test solution for 3 seconds and allowed to dry in a fume hood. Test plants were maintained under fluorescent lighting in a 24-hr photoperiod at 25° C. and 20-40% relative humidity. Mortality on the treated plants, relative to mortality on untreated check plants, was determined after 5 days.

For data set [2], the system named is Cotton Aphid (Aphis gossypii). Put plainly: Cotton aphid (Aphis gossypii) test, infested cotton cotyledons dipped in test solution. Type of data set: in vivo. The conditions noted are these: 120 h, determined after 5 days, read-out: mortality of cotton aphid (Aphis gossypii, mixed life stages) in comparison with untreated controls. How it is done:
as §1, §2
Cotton plants at the cotyledon stage were infested prior to treatment by placing a heavily infested leaf from the main aphid colony on top of each cotyledon. The aphids were allowed to transfer overnight and the host leaf was removed. The infested cotyledons were then dipped and agitated in the test solution for 3 seconds and allowed to dry in a fume hood. Test plants were maintained under fluorescent lighting in a 24-hr photoperiod at 25° C. and 20-40% relative humidity. Aphid mortality on the treated plants, relative to mortality on untreated check plants, was determined after 5 days.

Data set [3] relates to Vetch Aphid (Megoura viciae). Put plainly: Vetch aphid (Megoura viciae) test, sprayed bean leaf disks in microtiterplates. Type of data set: in vivo. As to conditions: foliar, 144 h, bean leaf disks sprayed with 2.5 μl, 6 days, read-out: mortality compared to untreated controls. How it is done:
The active compounds were formulated in 1:3 DMSO:water. Bean leaf disks were placed into microtiterplates filled with 0.8% agar-agar and 2.5 ppm OPUS™. The leaf disks were sprayed with 2.5 μl of the test solution and 5 to 8 adult aphids were placed into the microtiterplates which were then closed and kept at 22-24° C. and 35-45% under fluorescent light for 6 days. Mortality was assessed on the basis of vital, reproduced aphids. Tests were replicated 2 times.

For data set [4], the system named is Cowpea Aphid (aphis craccivora). Put plainly: Cowpea aphid (aphis craccivora) test, colonized potted cowpea plants sprayed. Type of data set: in vivo. As to conditions: population reduction recorded after 24, 72, and 120 hours. How it is done: as §2
The active compounds were formulated in 50:50 acetone:water. Potted cowpea plants colonized with 100-150 aphids of various stages were sprayed after the pest population has been recorded. Population reduction was recorded after 24, 72, and 120 hours.

Data set [5] deals with Silverleaf Whitefly (bemisia argentifolii). Put plainly: Silverleaf whitefly (bemisia argentifolii) test, cotton cotyledons dipped, whitefly adults introduced. As to conditions: 72 h, whitefly adults on dipped cotton cotyledons, assessed 3 days after treatment, read-out: mortality compared to untreated controls. It counts as in vivo. How it is done: as §2
The active compounds were formulated in 50:50 acetone:water and 100 ppm Kinetica™ surfactant.
Selected cotton plants were grown to the cotyledon state (one plant per pot). The cotyledons were dipped into the test solution to provide complete coverage of the foliage and placed in a well-vented area to dry. Each pot with treated seedling was placed in a plastic cup and 10 to 12 whitefly adults (approximately 3-5 day old) were introduced. The insects were colleted using an aspirator and an 0.6 cm, non-toxic TygonÒ tubing (R-3603) connected to a barrier pipette tip. The tip, containing the collected insects, was then gently inserted into the soil containing the treated plant, allowing insects to crawl out of the tip to reach the foliage for feeding. The cups were covered with a reusable screened lid (150 micron mesh polyester screen PeCap from Tetko Inc). Test plants were maintained in the holding room at about 25° C. and 20-40% relative humidity for 3 days avoiding direct exposure to the fluorescent light (24 hour photoperiod) to prevent trapping of heat inside the cup. Mortality was assessed 3 days after treatment of the plants.

SMILES strings stand for the structures. Bounds are passed on as bounds.

For `OCCNC(=S)NC1COc2ccc(F)cc21` (stereo not drawn) [Compound example 1, 1-(5-Fluoro-2,3-dihydro-benzofuran-3-yl)-3-(2-hydroxy-ethyl)-thiourea], the mortality at 300 ppm in data set [1], in data set [2] and in data set [4] was at least 75% each time. Moreover, in data set [3], the mortality at 2500 ppm is at least 75%.

Regarding `OCCNC(=S)NC1CSc2c(F)cccc21` (stereo not drawn) [Compound example 2, 1-(7-Fluoro-2,3-dihydro-benzo[b]thiophen-3-yl)-3-(2-hydroxy-ethyl)-thiourea], the mortality at 300 ppm in data set [1], in data set [2] and in data set [4] was at least 75% in each case. The mortality at 2500 ppm in data set [3] is at least 75%.

For the compound `CC(=O)OCCNC(=S)NC1CSc2c(F)cccc21` (stereo not drawn) [Compound example 3, Acetic acid 2-[3-(7-fluoro-2,3-dihydro-benzo[b]thiophen-3-yl)thioureido]-ethyl ester], the mortality at 300 ppm in data set [1], in data set [5] and in data set [4] was at least 75% in each case. In addition, the mortality at 2500 ppm in data set [3] is at least 75%.

`OCCNC(=S)NC1(c2ccccc2)CCc2ccccc21` (stereo not drawn) [Compound example 4] had a melting point of 67 to 69 °C.

On to `CC(=O)OCCNC(=S)NC1c2cccc(F)c2CC1(C)C` (stereo not drawn) [Compound example 5], for which the mortality at 300 ppm in data set [1], in data set [2], in data set [5] and in data set [4] was at least 75% each time. The mortality at 2500 ppm in data set [3] is at least 75%.

On to `CC1(C)Cc2c(F)cccc2C1NC(=S)NCCO` (stereo not drawn) [Compound example 6], for which the mortality at 300 ppm in data set [1], in data set [2] and in data set [4] was at least 75% each time. Besides, the mortality at 2500 ppm in data set [3] is at least 75%.

In the case of `CC(=O)OCCNC(=S)NC1CC(C)c2c(F)cccc21` (stereo not drawn) [Compound example 7], the mortality at 300 ppm in data set [1], in data set [2] and in data set [5] was at least 75% throughout. The mortality at 2500 ppm in data set [3] is at least 75%.

With `CC1Cc2c(F)cccc2C1NC(=S)NCCO` (stereo not drawn) [Compound example 8], the mortality at 300 ppm in data set [1], in data set [2] and in data set [4] was at least 75% throughout. For the same compound, in data set [3], the mortality at 2500 ppm was at least 75%.

What is called mortality is the share of the test organisms that died. By melting point is commonly meant the temperature of the solid-liquid transition.

These data come from patent US8173675B2, “Substituted amino-thiourea compounds for combating animal pests” (BASF SE, priority 2007, dated 2012).
